Literature values, collected in article PMC3461162 (British Journal of Cancer, 2012).

Conditions: phase I, currently being investigated; no reference given; cited from earlier work

CNC(=O)c1cccc(-c2ccc3c(N4CCOC[C@@H]4C)nc(N4CCOC[C@@H]4C)nc3n2)c1 [AZD2014]
Rise in transaminases: no rise in transaminases has been reported
